Data from US20110195432A1, “METHODS FOR THE SELECTION OF THERAPEUTIC TREATMENTS FOR CANCER” (priority 2008, published 2011).
Entries after “also recorded” stand apart in the source; their conditions may differ.

Key:
PSA = experiment: Real-time PCR of AR target gene expression, LNCaP cells; assay type: cell-based; details: increasing doses, vehicle set to 1
Description: (§1) All samples were run in triplicate. The vehicle-treated sample was set to 1.

HSP90 and AR = tested on: HSP90 and AR
Experimental: (§2) LNCaP and VCaP cells were grown according to ATCC instructions. Sulforaphane (SFN, #S4441 Sigma, St. Louis, Mo.) was re-suspended in DMSO. Vehicle-treated cells received the respective vehicle controls Immunoprecipitations were carried out after treatment with sulforaphane (20 μM) or vehicle for 4 hours followed by a Western blot for HSP90 and AR. Enrichment was quantified for each immunoprecipitation. Inputs were probed with the indicated antibodies by Western blot and were quantified.
(§3) Immunoprecipitation and immunoblotting were performed as described (Qian et al., Clin. Cancer Res. 12:634-42, 2006). The following antibodies used in immunoblotting or immunoprecipitations (indicated dilutions are for immunoblotting): AR (1:1000, #06-680 Upstate, Billerica, Mass.); acetylated lysine (#05-515 Upstate, Billerica, Mass.); acetylated tubulin (1:2000, #T6793 Sigma, St. Louis, Mo.); alpha-tubulin (1:10,000, #T6074 Sigma, St. Louis, Mo.); beta-actin (1:5000, #A5441 Sigma, St. Louis, Mo.); ERG-1/2/3, (1:5000, #sc-354X Santa Cruz, Santa Cruz, Calif.); FLAG epitope (#F7425 Sigma, St. Louis, Mo.); GAPDH (1:5000, #sc-32233 Santa Cruz, Santa Cruz, Calif.); HDAC6 (1:1000, #sc-11420 Santa Cruz); HSP90 (1:1000, #SPA-840 Stressgen, Ann Arbor, Mich.); mouse IgG (#sc-2025 Santa Cruz, Santa Cruz, Calif.). The following secondary antibodies were used: ECL-conjugated anti-mouse IgG, (1:5000, #A6782 Sigma, St. Louis, Mo.); ECL-conjugated anti-rabbit IgG (1:3000, #NA934 Amersham, Piscataway, N.J. or 1:10,000, #sc-2004 Santa Cruz, Santa Cruz, Calif.). X-ray exposures were scanned as uncompressed images and bands were quantified by densitometry with Quantity One software (Bio-Rad, Hercules, Calif.). Intensity values were normalized to those of the endogenous controls. The vehicle sample was set to 1. Enrichment was calculated as: (intensity IP/intensity input)/(intensity IgG/intensity input) or intensity IP/input (FIG. 1B).

HSP90 = details: sulforaphane 20 μM
Experimental: as §2, §3

AR = experiment: Western blot of AR protein levels, VCaP cells; assay type: cell-based; details: 24 hours
ERG = details: VCaP cells; 20 μM sulforaphane, 24 hours; treated in parallel with ChIP
Experimental: as §3, with “The vehicle sample was set to 1.” left out

HDAC6 [1] = details: LNCaP cells; sulforaphane versus vehicle
Experimental: as §1
LNCaP cells were transiently transfected with pCDNA3.1 empty vector (Invitrogen, Carlsbad, Calif.) or FLAG-tagged HDAC6 expression vector (Addgene, Cambridge, Mass.) using Lipofectamine LTX and Plus reagents (Invitrogen, Carlsbad, Calif.). Forty-eight hours later, media was replaced for a 16-hour treatment with […] sulforaphane or vehicle. Levels of FLAG, HDAC6, AR, acetylated alpha-tubulin, and actin were measured by Western blot.

HDAC6 [2] = experiment: Western blot of HDAC6 protein levels, LNCaP cells; assay type: cell-based
PSA ARE = details: LNCaP cells; 20 μM sulforaphane, 24 hours; versus vehicle-treated cells
Experimental: To determine whether AR protein depletion from its target genes' androgen response elements (AREs) was responsible for reduced target gene expression, chromatin immunoprecipitation (ChIP) was performed. Cells were cross-linked with formaldehyde and reactions were stopped with glycine. Crosslinked cells were re-suspended in RIPA with SigmaFast protease inhibitors tablets (Sigma, St. Louis, Mo.) and sonicated on ice using a Branson Digital Sonifer model 450 (Branson Ultrasonics Co., Danbury, Conn.). Sonicated cellular lysates were used for Matrix ChIP (Flanagin et al., Nucleic Acids Res 36: e17, 2008) Immunoprecipitations were performed without adding an antibody or with 500 ng of an anti-AR antibody. PCR reactions were amplified using a thermocycler (see supplementary methods). ChIP PCR primer sequences were as follows:
Primers were synthesized by IDT (Coralville, Iowa). ChIP PCR program consisted of: 95° C. for 5 minutes for 1 cycle; 95° C. for 30 seconds, 58° C.(TMPRSS2-ERG) or 60° C. (PSA) for 30 seconds, and 72° C. for 30 seconds for 35-40 cycles; 72° C. final extension for 5 minutes. […] Bands were imaged for densitometry using a Gel Doc XR UV transilluminator and Quantity One software (Bio-Rad, Hercules, Calif.).

C[S+]([O-])CCCCN=C=S (stereo not drawn) [sulforaphane, 1-Isothiocyanato-4-methylsulfinylbutane]
AR target gene expression (PSA) (PSA): dose-dependent reduction | interaction between HSP90 and AR (HSP90 and AR; 4 hour sulforaphane treatment, as opposed to vehicle): disrupted | Levels of acetylation of the AR (HSP90 and AR; 4 hour treatment, vehicle versus sulforaphane): similar | enrichment of acetylated lysines on the HSP90 protein (HSP90; LNCaP cells, four hours, versus vehicle-treated cells): increased enrichment of acetylated lysines on the HSP90 protein | levels of HSP90 in input whole cell lysate (HSP90; 4 hours, versus vehicle): similar | levels of AR protein in whole cell lysates (AR; 20 μM sulforaphane, treated in parallel with ChIP): near absent levels | AR protein levels (AR; all sulforaphane dose levels): declined | levels of ERG protein in whole cell lysates (ERG): near absent levels | HDAC6 transcript levels (HDAC6 [1]): reduce HDAC6 transcript levels | HDAC6 protein levels at later time points (HDAC6 [2]; 16 hours): reduced HDAC6 protein levels | HDAC6 protein expression in HDAC6-over-expressing cells (HDAC6 [2]; FLAG-HDAC6 transfected LNCaP cells, sulforaphane-treated, versus empty-vector, sulforaphane-treated cells): restored | HDAC6 protein levels with concomitant proteasome inhibitor (HDAC6 [2]; LNCaP cells, 16 hours, 20 μM sulforaphane with 20 μM MG132 versus sulforaphane-treated cells): restored HDAC6 protein levels | levels of HDAC6 in input whole cell lysate (HDAC6 [2]; LNCaP cells, early time point, 4 hours, versus vehicle): similar; also recorded: without changing its levels | HDAC6 protein levels (HDAC6 [2]; empty-vector transfected LNCaP cells, 16-hour treatment with 15 nM sulforaphane versus vehicle): reduced | enrichment of AR at the PSA ARE (PSA ARE): reduced enrichment
